US8912220B2 (priority 2009, dated 2014)

Biological target: human 5-HT2C(VSV) (Homo sapiens, UniProt P28335, I156V/I160V/N158S)
Assay: cell-based

Sequence of human 5-HT2C(VSV) (P28335 33-458 I156V/N158S/I160V limits assumed): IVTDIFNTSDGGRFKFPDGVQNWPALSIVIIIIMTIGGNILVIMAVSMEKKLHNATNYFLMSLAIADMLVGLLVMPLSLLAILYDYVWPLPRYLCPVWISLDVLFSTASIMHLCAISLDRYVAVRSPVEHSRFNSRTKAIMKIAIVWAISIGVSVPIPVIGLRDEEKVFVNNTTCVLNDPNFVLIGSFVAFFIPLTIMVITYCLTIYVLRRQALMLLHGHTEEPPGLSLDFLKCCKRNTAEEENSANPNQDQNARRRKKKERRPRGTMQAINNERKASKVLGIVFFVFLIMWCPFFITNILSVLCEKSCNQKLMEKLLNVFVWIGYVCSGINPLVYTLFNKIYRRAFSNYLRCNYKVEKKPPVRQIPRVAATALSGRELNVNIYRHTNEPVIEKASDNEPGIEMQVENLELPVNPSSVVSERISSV

Structure (SMILES) | EC50 [µM]
CCn1cc(CCN(C)C)c2c(OCc3ccc(F)cc3)cc(F)cc21 [1-14b, 2-(1-ethyl-6-fluoro-4-(4-fluorobenzyloxy)-1H-indol-3-yl)-N,N-dimethylethanamine] | 0.001 to 0.5
COc1c(F)ccc2c1c(CCN1CCN(c3ccccc3)CC1)cn2C [17-14, 5-fluoro-4-methoxy-1-methyl-3-(2-(4-phenylpiperazin-1-yl)ethyl)-1H-indole] | 0.5 to 10
CNCCc1cn(C)c2ccc(F)c(OCc3ccccc3Cl)c12 [33-23, 2-(4-(2-chlorobenzyloxy)-5-fluoro-1-methyl-1H-indol-3-yl)-N-methylethanamine] | 0.001 to 0.5
CNCCc1cn(C)c2c(F)cc(CCc3ccccc3)c(OC)c12 [23-4, 2-(7-fluoro-4-methoxy-1-methyl-5-phenethyl-1H-indol-3-yl)-N-methylethanamine] | 0.5 to 10
NCCc1cn(CC2COc3ccccc3O2)c2ccc(F)c(O)c12 (stereo not drawn) [19-5, 3-(2-aminoethyl)-1-((2,3-dihydrobenzo[b][1,4]dioxin-2-yl)methyl)-5-fluoro-1H-indol-4-ol] | 0.001 to 0.5
COc1c(F)ccc2c1c(CCN[C@H]1CCCc3ccccc31)cn2C [17-16, (S)-N-(2-(5-fluoro-4-methoxy-1-methyl-1H-indol-3-yl)ethyl)-1,2,3,4-tetrahydronaphthalen-1-amine] | 0.001 to 0.5
CNCCc1cn(C)c2c(F)cc(-c3ccccc3)c(OC)c12 [22-5, 2-(7-fluoro-4-methoxy-1-methyl-5-phenyl-1H-indol-3-yl)-N-methylethanamine] | 0.001 to 0.5
COc1c(F)ccc2c1c(CCN1CCNCC1)cn2C [17-10, 5-fluoro-4-methoxy-1-methyl-3-(2-(piperazin-1-yl)ethyl)-1H-indole] | 0.5 to 10
CCn1cc(CCN(C)C)c2c(OCc3ccc(OC)cc3)cc(F)cc21 [1-15b, 2-(1-ethyl-6-fluoro-4-(4-methoxybenzyloxy)-1H-indol-3-yl)-N,N-dimethylethanamine] | 0.001 to 0.5
CNCCc1cn(C)c2ccc(F)c(OCc3cc(F)ccc3C)c12 [33-33, 2-(5-fluoro-4-(5-fluoro-2-methylbenzyloxy)-1-methyl-1H-indol-3-yl)-N-methylethanamine] | 0.001 to 0.5
CCn1cc(CCNCc2ccccc2)c2c(OCc3ccccc3)cc(F)cc21 [26-7, N-benzyl-2-(4-(benzyloxy)-1-ethyl-6-fluoro-1H-indol-3-yl)ethanamine] | 0.5 to 10
CCCn1cc(CCNC)c2c(OCc3cccc4ccccc34)c(F)ccc21 [33-39, 2-(5-fluoro-4-(naphthalen-1-ylmethoxy)-1-propyl-1H-indol-3-yl)-N-methylethanamine] | 0.001 to 0.5
CCn1cc(CCN(C)C)c2c(OC)c(CCc3nc4ccccc4[nH]3)cc(F)c21 [29-4, 2-(5-(2-(1H-benzo[d]imidazol-2-yl)ethyl)-1-ethyl-7-fluoro-4-methoxy-1H-indol-3-yl)-N,N-dimethylethanamine] | 0.001 to 0.5
COc1ccc(-c2ccoc2)c2c1c(CCN(C)C)cn2C [6-9, 2-(7-(furan-3-yl)-4-methoxy-1-methyl-1H-indol-3-yl)-N,N-dimethylethanamine] | 0.5 to 10
CCn1cc(C2=CCNCC2)c2c(OCc3ccccc3)cc(F)cc21 [37-2, 4-(benzyloxy)-1-ethyl-6-fluoro-3-(1,2,3,6-tetrahydropyridin-4-yl)-1H-indole] | 0.5 to 10
CCn1cc(C2CCCN(C)C2)c2c(O)cc(F)cc21 (stereo not drawn) [38-6, 1-ethyl-6-fluoro-3-(1-methylpiperidin-3-yl)-1H-indol-4-ol] | 0.5 to 10
CNCCc1cn(C)c2cc(F)cc(OCc3ccccc3Cl)c12 [33-44, 2-(4-(2-chlorobenzyloxy)-6-fluoro-1-methyl-1H-indol-3-yl)-N-methylethanamine] | 0.001 to 0.5
CCOc1c(F)ccc2c1c(CCNC1Cc3ccccc3C1)cn2C [30-16, N-(2-(4-ethoxy-5-fluoro-1-methyl-1H-indol-3-yl)ethyl)-2,3-dihydro-1H-inden-2-amine] | 0.001 to 0.5
COc1ccc(-c2ccco2)c2c1c(CCN(C)C)cn2C [6-8, 2-(7-(furan-2-yl)-4-methoxy-1-methyl-1H-indol-3-yl)-N,N-dimethylethanamine] | 0.5 to 10
CCCn1cc(CCNC)c2c(OCc3ccc(C)cc3)c(F)ccc21 [33-16, 2-(5-fluoro-4-(4-methylbenzyloxy)-1-propyl-1H-indol-3-yl)-N-methylethanamine] | 0.001 to 0.5
COc1ccc(-c2cccs2)c2c1c(CCN(C)C)cn2C [6-7, 2-(4-methoxy-1-methyl-7-(thiophen-2-yl)-1H-indol-3-yl)-N,N-dimethylethanamine] | 0.5 to 10
CCn1cc(CCNCc2ccccc2)c2c(O)cc(F)cc21 [26-8, 3-(2-(benzylamino)ethyl)-1-ethyl-6-fluoro-1H-indol-4-ol] | 0.001 to 0.5
CNCCc1cn(C)c2ccc(F)c(OCc3ccc(Cl)c(OC(F)(F)F)c3)c12 [33-49, 2-(4-(4-chloro-3-(trifluoromethoxy)benzyloxy)-5-fluoro-1-methyl-1H-indol-3-yl)-N-methylethanamine] | < 10
COc1ccc(F)c2c1c(CCN1CCOCC1)cn2C [11-9, 4-(2-(7-fluoro-4-methoxy-1-methyl-1H-indol-3-yl)ethyl)morpholine] | 0.001 to 0.5

Structure (SMILES) | EC50 [µM]
CN(CCc1cn(C)c2ccc(F)c(OCc3ccccc3C#N)c12)Cc1ccccc1C#N [35-2, 2-((3-(2-((2-cyanobenzyl)(methyl)amino)ethyl)-5-fluoro-1-methyl-1H-indol-4-yloxy)methyl)benzonitrile] | 0.5 to 10
CNCCc1cn(C)c2ccc(F)c(OCCc3ccccc3C)c12 [33-17, 2-(5-fluoro-1-methyl-4-(2-methylphenethoxy)-1H-indol-3-yl)-N-methylethanamine] | 0.001 to 0.5
COc1c(F)ccc2c1c(CCN[C@@H]1CCCc3ccccc31)cn2C [17-17, (R)-N-(2-(5-fluoro-4-methoxy-1-methyl-1H-indol-3-yl)ethyl)-1,2,3,4-tetrahydronaphthalen-1-amine] | 0.001 to 0.5
CCn1cc(CCNCCOC)c2c(O)cc(F)cc21 [11-11, 1-ethyl-6-fluoro-3-(2-(2-methoxyethylamino)ethyl)-1H-inol-4-ol] | 0.001 to 0.5
CN(C)CCc1cn(Cc2cccs2)c2c(F)ccc(OCc3ccccc3)c12 [7-4, 2-(4-(benzyloxy)-7-fluoro-1-(thiophen-2-ylmethyl)-1H-indol-3-yl)-N,N-dimethylethanamine] | 0.001 to 0.5
CCn1cc(CCN2CCCOCC2)c2c(O)cc(F)cc21 [11-12, 3-(2-(1,4-oxazepan-4-yl)ethyl)-1-ethyl-6-fluoro-1H-indol-4-ol] | 0.5 to 10
CCn1cc(CCN(C)C)c2c(Oc3ccccc3)cc(F)cc21 [32-2, 2-(1-ethyl-6-fluoro-4-phenoxy-1H-indol-3-yl)-N,N-dimethylethanamine] | 0.5 to 10
COc1ccc(-c2cccnc2)c2c1c(CCN(C)C)cn2C [6-14, 2-(4-methoxy-1-methyl-7-(pyridin-3-yl)-1H-indol-3-yl)-N,N-dimethylethanamine] | 0.001 to 0.5
CNCCc1cn(C)c2ccc(F)c(OCc3ccccc3C)c12 [33-22, 2-(5-fluoro-1-methyl-4-(2-methylbenzyloxy)-1H-indol-3-yl)-N-methylethanamine] | 0.001 to 0.5
CCn1cc(CCNCc2ccccc2Cl)c2c(OC)ccc(F)c21 [20-10, N-(2-chlorobenzyl)-2-(1-ethyl-7-fluoro-4-methoxy-1H-indol-3-yl)ethanamine] | 0.001 to 0.5
COc1c(F)ccc2c1c(CCNC(CO)c1ccccc1)cn2C (stereo not drawn) [34-9, 2-(2-(5-fluoro-4-methoxy-1-methyl-1H-indol-3-yl)ethylamino)-2-phenylethanol] | 0.001 to 0.5
COc1c(F)ccc2c1c(CCNCCCCc1ccccc1)cn2C [17-13, N-(2-(5-fluoro-4-methoxy-1-methyl-1H-indol-3-yl)ethyl)-4-phenylbutan-1-amine] | 0.001 to 0.5
COc1c(F)ccc2c1c(CCNc1cccc(N3CCN(C)CC3)c1)cn2C [17-18, N-(2-(5-fluoro-4-methoxy-1-methyl-1H-indol-3-yl)ethyl)-3-(4-methylpiperazin-1-yl)aniline] | 0.001 to 0.5
CN(C)CCc1cn(Cc2ccccc2)c2c(F)ccc(O)c12 [7-3, 1-benzyl-3-(2-(dimethylamino)ethyl)-7-fluoro-1H-indol-4-ol] | 0.5 to 10
COc1ccc(C#CCO)c2c1c(CCN(C)C)cn2C [6-11, 3-(3-(2-(dimethylamino)ethyl)-4-methoxy-1-methyl-1H-indol-7-yl)prop-2-yn-1-ol] | 0.001 to 0.5
CCOc1c(F)ccc2c1c(CCNCc1ccc3c(c1)OCO3)cn2C [30-18, N-(benzo[d][1,3]dioxol-5-ylmethyl)-2-(4-ethoxy-5-fluoro-1-methyl-1H-indol-3-yl)ethanamine] | 0.001 to 0.5
CCn1cc(CCNCCc2cccc(C(F)(F)F)c2)c2c(OCc3ccccc3)cc(F)cc21 [31-13, 2-(4-(benzyloxy)-1-ethyl-6-fluoro-1H-indol-3-yl)-N-(3-(trifluoromethyl)phenethyl)ethanamine] | 0.001 to 0.5
CCN(CC)C(=O)Cn1cc(CCN)c2c(O)c(F)ccc21 [19-6, 2-(3-(2-aminoethyl)-5-fluoro-4-hydroxy-1H-indol-1-yl)-N,N-diethylacetamide] | < 10
CNCCc1cn(C)c2ccc(F)c(OCc3cccc(C(F)(F)F)c3)c12 [33-21, 2-(5-fluoro-1-methyl-4-(3-(trifluoromethyl)benzyloxy)-1H-indol-3-yl)-N-methylethanamine] | 0.001 to 0.5
CCn1cc(CCN(C)C)c2c(OCc3ccccc3C(F)(F)F)cc(F)cc21 [1-13b, 2-(1-ethyl-6-fluoro-4-(2-(trifluoromethyl)benzyloxy)-1H-indol-3-yl)-N,N-dimethylethanamine] | 0.5 to 10
CCOc1c(F)ccc2c1c(CCNCc1ccccc1Cl)cn2C [30-17, N-(2-chlorobenzyl)-2-(4-ethoxy-5-fluoro-1-methyl-1H-indol-3-yl)ethanamine] | 0.001 to 0.5
CCOc1c(F)ccc2c1c(CCNCCc1ccccc1)cn2C [30-25, 2-(4-ethoxy-5-fluoro-1-methyl-1H-indol-3-yl)-N-phenethylethanamine] | 0.001 to 0.5
CCn1cc(CCNCCc2ccccc2)c2c(OC)ccc(F)c21 [20-7, 2-(1-ethyl-7-fluoro-4-methoxy-1H-indol-3-yl)-N-phenethylethanamine] | 0.001 to 0.5
CCn1cc(CCNCCc2ccccc2)c2c(O)cc(F)cc21 [26-11, 1-ethyl-6-fluoro-3-(2-(phenethylamino)ethyl)-1H-indol-4-ol] | 0.001 to 0.5
